Patent publication US9376380B2 (University of Pittsburgh—Of the Commonwealth System of …, priority 2011, dated 2016)
Read-outs that look alike come from different tables or passages of the source.

What was measured:
[1] = tested on: peripheral blood mononuclear cell (PBMC); experiment: Cytotoxicity on normal human PBMC, trypan blue exclusion; assay type: cell-based; settings: 3 days
From the text: Peripheral blood was drawn in a heparinized syringe from healthy fasting volunteers who had been without medication for at least 2 weeks. The peripheral blood mononuclear cell (PBMC) fraction was obtained by gradient centrifugation over Ficoll-Hypaque (Amersham), as described by Feng, R. et al. S. KD5170, a novel mercaptoketone-based histone deacetylase inhibitor, exerts antimyeloma effects by DNA damage and mitochondrial signaling, Mol. Cancer Ther. 2008, 7, 1494-1505. […] The compounds in a stock solution (50 mMin DMSO) were diluted with the culture medium to application conditions and further used for the treatment of PBMC for 3 days. The final DMSO concentrations are always 0.02%. After treatment for 72 h, cell viability was determined using trypan blue exclusion assay. These human cell studies conformed to the guidelines of the Institutional Review Board of the University of Pittsburgh, Pa.

CB2 receptor = CB2 receptor (Homo sapiens, UniProt P34972); experiment: [3H]CP-55,940 radioligand competition binding, CB2; parameters: host or cells: cell membrane preparations; settings: for SI: selectivity index for CB2: Ki(CB1)/Ki(CB2) ratio
Chain of CB2 receptor (P34972 whole entry): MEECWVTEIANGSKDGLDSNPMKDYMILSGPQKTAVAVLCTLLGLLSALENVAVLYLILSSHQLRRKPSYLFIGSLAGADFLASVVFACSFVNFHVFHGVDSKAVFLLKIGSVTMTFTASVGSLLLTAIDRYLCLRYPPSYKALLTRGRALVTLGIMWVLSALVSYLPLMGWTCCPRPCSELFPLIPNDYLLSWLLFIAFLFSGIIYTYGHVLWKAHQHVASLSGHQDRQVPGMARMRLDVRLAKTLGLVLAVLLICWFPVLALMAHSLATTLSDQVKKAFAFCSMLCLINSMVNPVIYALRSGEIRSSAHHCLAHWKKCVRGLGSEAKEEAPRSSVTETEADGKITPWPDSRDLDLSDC
Procedure: (§1) Briefly, the bioassay is carried out using the Perkin Elmer 96-well Top Counter. […] The procedure is as follows.
(§2) In competition binding experiments, the tested compound dilutions are carried out in duplicate in TME buffer (25 mM Tris, 5 mM MgCl2, 1 mM EDTA) containing 0.1% (w/v) fatty acid free bovine serum albumin (BSA), pH 7.4. […] TME buffer and cell membrane preparations expressing CB receptors (5 μg per well) are added to a final volume of 200 μL. […] After the binding suspensions are incubated at 30° C. for 1 hr, the reaction is terminated by rapid filtration through microfiltration plates (Unifilter GF/B filterplate, PerkinElmer), followed by 5 washes with ice cold TME buffer containing 0.1% BSA on a Packard Filtermate Harvester (PerkinElmer). The plates are then dried overnight and 30 μl MicroScint 0 scintillation cocktail is added to each well of the dried filter plates. The bound radioactivity is then counted using a Perkin Elmer 96-well TopCounter. […] This assay is used for determination of the binding affinity parameters (Ki) of ligand-receptor interactions for the CB receptor.

RAW 264.7 cells = experiment: RANKL-induced osteoclast differentiation on RAW 264.7 cells (TRAP); assay type: cell-based, mouse; settings: for inhibition at 0.1 µM / inhibition at 1 µM / inhibition at 10 µM: Mus musculus, RAW264.7, read-out: inhibition rate of osteoclast formation; for inhibition of RANKL-induced osteoclastogenesis, dose dependence: RANKL 15 ng/mL, 5 days; for inhibition at 1 µM / inhibition activity at low dose: 1 μM
From the text: FIG. 5. Anti-osteoclastogenesis activity of exemplary compounds. […] The bar indicates the SD. (B) Photographs of cells in the test of compound 93 (original magnification 100×).

CB1 receptor = molecular target: T1, CB1 receptor (Homo sapiens, UniProt P21554); experiment: [3H]CP-55,940 radioligand competition binding, CB1; settings: [3H]CP-55,940 displacement; read-out: Ki (CB1)
T1 construct: host or cells: cell membrane preparations
T1 sequence (P21554 whole entry): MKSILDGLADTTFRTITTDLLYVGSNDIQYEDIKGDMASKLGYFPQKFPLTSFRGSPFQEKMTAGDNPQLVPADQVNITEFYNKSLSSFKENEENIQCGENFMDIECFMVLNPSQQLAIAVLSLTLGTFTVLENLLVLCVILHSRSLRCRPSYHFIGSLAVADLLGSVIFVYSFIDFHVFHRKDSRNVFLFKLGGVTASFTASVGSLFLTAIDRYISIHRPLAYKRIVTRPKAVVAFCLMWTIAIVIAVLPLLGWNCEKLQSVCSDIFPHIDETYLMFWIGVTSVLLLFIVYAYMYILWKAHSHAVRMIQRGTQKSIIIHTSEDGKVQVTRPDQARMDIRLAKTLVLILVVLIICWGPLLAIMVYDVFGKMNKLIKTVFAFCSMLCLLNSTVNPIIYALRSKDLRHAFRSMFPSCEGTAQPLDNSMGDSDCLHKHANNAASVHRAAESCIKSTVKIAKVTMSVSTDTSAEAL
Procedure: as §1, §2

[2] = [3H]CP-55,940 displacement, read-out: Ki (CB2)

Row | SMILES | cell viability vs vehicle control [1] | SI: selectivity index for CB2 (CB2 receptor) | Ki (CB2 receptor; [2]) [µM] | inhibition at 0.1 µM (RAW 264.7 cells) [%] | inhibition at 1 µM (RAW 264.7 cells) [%] | inhibition at 10 µM (RAW 264.7 cells) [%] | cytotoxic effects ([1]; 1 μM) | effects on cell viability ([1]; 10 μM) | Ki (CB2 receptor) [µM] | Ki (CB1 receptor) [µM] | inhibition of RANKL-induced osteoclastogenesis, dose dependence (RAW 264.7 cells) | inhibition activity at low dose (RAW 264.7 cells) | effect on cell viability ([1]; 5 μM) | cell viability vs vehicle control ([1]; 1.25 and 2.5 μM) | effects on cell viability ([1]; 5 and 10 μM)
1 | CC(C)c1ccc(C(NC(=O)Cc2ccccc2)NC(=O)Cc2ccccc2)cc1 [Compound 9, N,N′-((4-isopropylphenyl)methylene)bis(2-phenylacetamide)] | not significantly affected | – | – | – | – | – | – | – | – | – | – | – | – | – | –
2 | CC(C)Oc1ccc(C(NC(=O)Cc2ccccc2)NC(=O)Cc2ccccc2)cc1 [Compound 12, N,N′-((4-isopropoxyphenyl)methylene)bis(2-phenylacetamide)] | not significantly affected | – | – | – | – | – | – | – | – | – | – | – | – | – | –
3 | CCN(CC)c1ccc(C(NC(=O)Cc2ccccc2)NC(=O)Cc2ccccc2)cc1 [Compound 17, N,N′-((4-(diethylamino)phenyl)methylene)bis(2-phenylacetamide)] | not significantly affected | >313 | 0.064 | 72 | 79 | 84 | did not show any cytotoxic effects | only slight effects on cell viability | – | – | – | – | – | – | –
4 | CCN(CC)c1ccc(CN(C23CC4CC(CC(C4)C2)C3)S(=O)(=O)c2cccc(C)c2)cc1 [Compound 61, N-((3s,5s,7s)-Adamantan-1-yl)-N-(4-(diethylamino)benzyl)-3-methylbenzenesulfonamide] | – | – | – | – | – | – | – | – | 0.019 | 8.22 | dose-dependent manner | – | – | – | –
5 | CCN(CC)c1ccc(CN(c2ccc(Cl)cc2)S(=O)(=O)c2ccc(OC)cc2)cc1 [Compound 84, N-(4-Chlorophenyl)-N-(4-(diethylamino)benzyl)-4-methoxybenzenesulfonamide] | not significantly affected | >1,428 | 0.014 | – | 97 | – | – | – | – | > 20 | dose-dependent manner | good inhibition activity | only slight effect on cell viability | not significantly affected | only some effects on cell viability
6 | CCN(CC)c1ccc(CN(c2ccc(C)cc2)S(=O)(=O)c2ccc(OC)cc2)cc1 [Compound 93, N-(4-(Diethylamino)benzyl)-4-methoxy-N-(p-tolyl)benzenesulfonamide] | not significantly affected | 2594 | 0.0005 | 46 | 97 | 100 | – | – | – | 1.3 | dose-dependent manner | good inhibition activity | – | not significantly affected | only some effects on cell viability
7 | CCN(CC)c1ccc(CN(C(=O)C2CCCCC2)c2ccc(C)cc2)cc1 [Compound 99, N-(4-(Diethylamino)benzyl)-N-(p-tolyl)cyclohexanecarboxamide] | – | 0.9 | 0.222 | – | – | – | – | – | – | 0.202 | – | – | – | – | –
